The test system of the test is FANCD2 foci and γH2AX in U2OS cells. Description: High-throughput high content indirect immunofluorescence (FANCD2 foci, γH2AX). The class given is cell-based. To be noted: for γH2AX positive cells / γH2AX levels: CU1 200 μM or CU2 500 μM in combination with HU (2.5 mM, 8 h) or cisplatin (10 μM, 8 h); for H2AX positive nuclei, Experiment 1 / H2AX positive nuclei, Experiment 2 / H2AX positive nuclei, Experiment 3: CU1 200 μM, raw data; for H2AX positive nuclei, Experiment 1 / H2AX positive nuclei, Experiment 2 / H2AX positive nuclei, Experiment 3 / H2AX positive nuclei, Totals: CU2 500 μM, HU 2.5 mM 8 h, cisplatin 10 μM 8 h; for number of FANCD2 foci per cell: 8 h, CU1 200 μM or CU2 500 μM; for H2AX positive nuclei, Totals: sum of experiments 1-3, CU1 200 μM. As to the method: In response to DNA damage, mUb-FANCD2 accumulates at sites of DNA lesions to form foci, promote DNA-damage sensing, activate cell-cycle checkpoints, and promote DNA repair.[23] Therefore, we employed high-throughput high-content indirect immunofluorescence studies to examine the effect of CU1 and CU2 on mUb-FANCD2 focus formation. The experimental format used was similar to the immunoblot-based experiments, excepting that, following treatment with HU (2.5 mM for 8 h) or cisplatin (10 μM for 8 h), cells were fixed, permeabilized and stained with specific FANCD2 primary and fluorescent secondary antibodies. In addition to monitoring mUb-FANCD2 foci, γH2AX was evaluated as a marker of DNA damage induction, and cell nuclei were visualized by 4′,6-diamidino-2-phenylindole (DAPI) staining. […] These observations are in accord with the immunoblot-based experiments wherein reductions in mUb-FANCD2 were observed (Figure 3a).
Figure 4 Further cell-based assays with CU1 and CU2: (a, b) Representative immunofluorescence images of U2OS cells treated with HU (2.5 mM, 8 h) or cisplatin (10 μM, 8 h) in the presence or absence of CU1 (200 μM) or CU2 (500 μM). (c) Quantification of the number of FANCD2 foci in cells treated as in panels (a) and (b). Data accumulated over three independent experiments, each consisting of three technical replicas. (d) IncuCyte analysis of U2OS cells treated with or without carboplatin (15 μM) and CU2 (250 μM). Mean calculated from three wells, four images per well. (HU = DMSO + HU, cisplatin = DMSO + cisplatin). […]
buffer (1 hour at room temperature) followed by three washes with PBST. Cells were then counterstained with DAPI (25 µg/mL) and mounted using Vectashield […]
High-throughput high content indirect immunofluorescence. U2OS cells, seeded in a 96-well plate, were treated with compound for 1 hour followed by 2.5 mM HU or 10 µM cisplatin for 8 hours. Cells were washed 3 times with wash buffer (1xPBS, 0.1% Tween-20) before being fixed in 2% paraformaldehyde (w/v) for 20 minutes at 23 °C. The cells were then washed a further 3 times in wash buffer before being stored overnight at 4°C in the final wash. Next day, the cells were permeabilized using 1xPBS, 0.5% Triton X-100 for 15 minutes at 23 °C and then washed 3 times with wash buffer before blocking with 5% BSA in 1xPBS, 0.1% Tween-20 for 30 minutes at 23 °C. After washing 3 times with wash buffer, the cells were incubated for 1 hour at 23 °C in the presence of primary antibodies (1:50 FANCD2, Santa Cruz, mouse monoclonal and 1:250 γH2AX, Cell Signalling, rabbit) in 5% BSA in wash buffer. After incubation in the presence of primary antibodies, the cells were washed 3 times with wash buffer before being incubated with secondary antibodies in 5% BSA in wash buffer for 1 hour in the dark at 23 °C. The secondary antibodies used were goat anti-mouse AlexaFluor 488 and goat anti-rabbit AlexaFluor 594 (both from Molecular Probes, Invitrogen). The cells were then washed a further 3 times with wash buffer before being stained in the presence of 2 µg/ml DAPI (Sigma D9542) in wash buffer for 10 minutes in the dark at 23 °C. After DAPI staining, the cells were washed 3 more times with wash buffer and stored in the final wash until ready for imaging.
A spinning-disk Opera PhenixTM (Perkin Elmer) microscope equipped with a 40x water immersion objective was employed to acquire 10 confocal images for each well in a single optimized focal plane comprising three fluorescence channels: 405, 488 and 568 nm for DAPI, Alexa Fluor 488 and Alexa Fluor 594, respectively. Image analysis and evaluation was done using Harmony High-Content Imaging and Analysis software. DAPI staining (405 nm) was used to segment nuclei, which were further gated for the presence of γH2AX staining

The mark [1] stands for this setting: in the presence of HU 2.5 mM, relative to HU alone.
The mark [2] stands for this setting: in the presence of cisplatin 10 μM, relative to cisplatin alone.

Results on two compounds are retold here after PMC6804243, “Small-Molecule Inhibition of UBE2T/FANCL-Mediated Ubiquitylation in the Fanconi Anemia Pathway” (ACS Chemical Biology, 2019).

Molecules are shown by their SMILES. “Also recorded” adds a separate entry of the source.

For the compound `NCCN1C(=O)CC[C@H]2CN(Cc3cccc(-c4ccco4)c3)CC[C@H]21` [CU1], the “γH2AX positive cells / γH2AX levels” value is listed as “no reduction in γH2AX positive cells; also recorded: do not significantly affect”; the “H2AX positive nuclei, Experiment 1” value is 40; the “H2AX positive nuclei, Experiment 2” value is recorded as 279; the “H2AX positive nuclei, Experiment 3” value is given as 126. The “H2AX positive nuclei, Totals” value came to 445. For the same compound, the “number of FANCD2 foci per cell” value under setting [1] is reported as “clear reduction in the number of FANCD2 foci per cell”. Also, the “number of FANCD2 foci per cell” value under setting [2] was “clear reduction in the number of FANCD2 foci per cell”.

For the compound `CCN1CCN(c2cc(C)nc3nc(CN4CCCCC4C)nn23)CC1` (centres unmarked) [CU2], the “γH2AX positive cells / γH2AX levels” value is listed as “no reduction in γH2AX positive cells; also recorded: do not significantly affect”; the “H2AX positive nuclei, Experiment 1” value turned out to be 56; the “H2AX positive nuclei, Experiment 2” value was 303; the “H2AX positive nuclei, Experiment 3” value was found to be 79. Further, the “H2AX positive nuclei, Totals” value is on record as 438. Also, the “number of FANCD2 foci per cell” value under setting [1] is given as “clear reduction in the number of FANCD2 foci per cell”. Further, the “number of FANCD2 foci per cell” value under setting [2] is “clear reduction in the number of FANCD2 foci per cell”.
